Measurements: patent US20250382261A1 (The Broad Institute, Inc., priority 2021, published 2025)

Legend:
[1] = test system: A. baumannii (ATCC 17978); assay: Checkerboard potentiation assay with novobiocin; type: cell-based; details: with novobiocin
Procedure: (§1) Bacterial strains and culture conditions. The following bacterial strains were used within this study; A. baumannii (ATCC 17978), K. pneumoniae (ATCC 43816), K. pneumoniae (ATCC 43816, expressing pGDP2:mcr-1), P. aeruginosa (PA01). Bacterial growth was in cation-adjusted Mueller-Hinton broth (MHB) at 37° C., and inoculum was prepared according to CLSI protocol (CLSI 2015).
(§2) Potentiation assays. Checkerboard analyses were conducted with each drug serially diluted at eight concentrations to create an 8×8 matrix. At least two biological replicates were done for each combination, and the means were used for FIC calculation. The FIC for each drug was calculated by dividing the concentration of the drug in the presence of codrug in a combination for a well showing <10% growth by the MIC for that drug alone. The FIC index (FICI) is the sum of the two FICs, with an FIC index≤0.5 deemed synergistic.

P. aeruginosa (PA01) = assay: Checkerboard potentiation assay with novobiocin; type: cell-based
Procedure: as §1, §2
(§3) To probe the spectrum of activity of the present analogs beyond A. baumannii, their interactions with novobiocin were assessed against the high-priority Gram-negative pathogens Klebsiella pneumoniae and P. aeruginosa (FIG. 5).

LPS from E. coli EH100 = assay: BODIPY-Cadaverine LPS displacement assay; type: binding; details: for LPS Displacement (EC50, μg/mL): BODIPY-cadaverine displacement from E. coli EH100 LPS
Procedure: BODIPY-Cadaverine LPS displacement assay. The BODIPY-cadaverine LPS displacement assay was performed as previously described (Wood et al. 2004. Combinatorial Chemistry & High Throughput Screening, 7: 239-49; Klobucar et al. 2021. ACS Chemical Biology, 16: 929-42). A solution of BODIPY-cadaverine (2.25 μM) and LPS from E. coli EH100 (5.25 μM) in Tris-HCl buffer (50 mM, pH 7.4) was prepared. 0.5 μL of compound and 49.5 μL of the Tris-HCl buffer with BODIPY-cadaverine and LPS solution were added to a Corning nonbinding surface black 384-well polystyrene plate. Fluorescence intensity was measured immediately with an excitation wavelength of 580 nm and an emission wavelength of 620 nm. EC50 values were calculated using a three-parameter logistic curve in GraphPad Prism 9.

[2] = test system: K. pneumoniae (ATCC 43816); assay: Checkerboard potentiation assay with novobiocin; type: cell-based
Procedure: as §1, §2, §3

[3] = HEK293 cytotoxicity assay (Cell Titer Glo); type: cell-based; details: human, HEK293T Cytotoxicity (IC50, μg/mL)
Procedure: Cytotoxicity Assays. HEK293 (ATCC CRL 1573) cells were left to adhere for 18 h at 7.5×10^3 cells per well in DMEM containing 10% FBS and 2 mM L-glutamine. Compound was added directly into the well. After 48 h of treatment Promega Cell Titer Glo 2.0® was added, shaken for 10 min, and luminescence read (Biotek Neo). AC50 values were calculated using a four-parameter logistic curve in GraphPad Prism 9.
Focusing on only the analogs that retained synergistic activity with novobiocin (FICI≤0.5), half-maximal activity (AC50) values were calculated against HEK293 cells using a CellTiter-Glo® based assay to approximate cell viability. […] Specifically, the FICI value for both P35 and P36 was 0.094 against A. baumannii, while their AC50 values were 235 μg/mL and 200 μg/mL, respectively.

Compound | FICI AB [1] | FICI PA (P. aeruginosa (PA01)) | LPS Displacement (EC50, μg/mL) (LPS from E. coli EH100) | FICI KP [2] | IC50 at 48 h [3] | Increase of LPS binding affinity compared to pentamidine (LPS from E. coli EH100; BODIPY displacement EC50 relative to pentamidine)
N=C(N)c1ccc(OCCC(N)CCOc2ccc(C(=N)N)cc2)cc1 (stereo not shown) [Analog P37] | 0.75 | 2 |  |  |  | 
N=C(N)c1ccc(OCCC[C@@H]2CCCN(c3ccc(C(=N)N)cc3)C2)cc1 [Analog P24A] |  | 0.375 | 91.74 µg/mL | 0.187 | 77.9 µg/mL | 
c1c[nH]c(-c2ccc(OCCCCCOc3ccc(-c4ncc[nH]4)cc3)cc2)n1 [Analog P11] |  | 2 |  | 2 | 104 µg/mL | 
N=C(N)c1ccc(OCCNCCOc2ccc(C(=N)N)cc2)cc1 [Analog P31A] | 0.5 | 2 | 497.8 µg/mL |  | > 640 µg/mL | 
N=C(N)c1ccc(OCCC2(CCOc3ccc(C(=N)N)cc3)CCCC2)cc1 [Analog P02] | 0.156 | 0.281 | 77.29 µg/mL | 0.187 | 15.3 µg/mL | 
N=C(N)c1ccc(OCCC2(CCOc3ccc(C(=N)N)cn3)CCCC2)nc1 [Analog P39] | 0.094 | 0.3125 | 48.34 µg/mL |  | 53.7 µg/mL | 
C[C@H](CCC[C@@H](C)Oc1ccc(C(=N)N)cc1)Oc1ccc(C(=N)N)cc1 [Analog P15C] |  | 0.375 | 148.8 µg/mL | 0.25 |  | 
N=C(N)c1ccc(OCCCCCOc2ccc(C(=N)N)nc2)cn1 [Analog P16] | 0.25 | 1 | 60.19 µg/mL | 0.375 | 183 µg/mL | 
CCC(CC)(CCOc1ccc(C(=N)N)cc1)CCOc1ccc(C(=N)N)cc1 [Analog P07] | 0.0625 | 1 | 19.04 µg/mL | 0.156 | 31.2 µg/mL | > 10 fold
CC(CCCC(C)Oc1ccc(C(=N)N)cc1)Oc1ccc(C(=N)N)cc1 (stereo not shown) [Analog P15] |  | 0.281 |  | 0.25 |  | 
N=C(N)c1ccc(OCCC(CCOc2ccc(C(=N)N)cc2)N2CCCC2)cc1 (stereo not shown) [Analog P38] | 0.75 | 2 | 202 µg/mL |  | > 80 µg/mL | 
N=C(N)c1ccc(OCCC2(CCOc3ccc(C(=N)N)cc3)CCC(C(=O)O)CC2)cc1 (stereo not shown) [Analog P30] | 0.625 | 2 | 119.4 µg/mL | 1 | 1100 µg/mL | 
C[C@H](CCCOc1ccc(C(=N)N)cc1)COc1ccc(C(=N)N)cc1 [Analog P22S] |  | 0.375 | 59.08 µg/mL | 0.25 | 53.7 µg/mL | 
N=C(N)c1ccc(OCCC[C@H]2CCCN(c3ccc(C(=N)N)cc3)C2)cc1 [Analog P24B] |  | 0.75 | 149.5 µg/mL | 0.187 | 57.9 µg/mL | 
N=C(N)c1ccc(OCCCCCOc2ccc(C(=N)N)cc2F)c(F)c1 [Analog P12] | 0.187 | 0.5 | 63.21 µg/mL | 0.187 | 95.5 µg/mL | 
N=C(N)c1ccc(OCCN(CCOc2ccc(C(=N)N)cc2)CCC(F)(F)F)cc1 [Analog P34] | 0.25 | 0.375 | 134.3 µg/mL |  | > 80 µg/mL | 
N=C(N)c1ccc(OCCC2CCCCC2CCOc2ccc(C(=N)N)cc2)cc1 (stereo not shown) [Analog P21] | 0.094 | 1 | 13.08 µg/mL | 0.046 | 19.2 µg/mL | 
C[C@@H](CCCOc1ccc(C(=N)N)cc1)COc1ccc(C(=N)N)cc1 [Analog P22R] |  | 0.3125 | 26.02 µg/mL | 0.25 | 94.2 µg/mL | 
N=C(N)c1ccc(OC2CCC(Oc3ccc(C(=N)N)cc3)CC2)cc1 (stereo not shown) [Analog P08] | 0.375 | 2 | 288.7 µg/mL | 0.25 | > 160 µg/mL | 
N=C(N)c1ccc(OCC2(COc3ccc(C(=N)N)cc3)CCCCC2)cc1 [Analog P31] | 0.094 | 0.187 | 43.82 µg/mL | 0.0937 | 73.5 µg/mL | 
N=C(NC1CCCCC1)c1ccc(OCCCCCOc2ccc(C(=N)NC3CCCCC3)nc2)cn1 [Analog P18] |  | 2 | 218.8 µg/mL | 1 | 22.2 µg/mL | 
C[C@H](CCC[C@H](C)Oc1ccc(C(=N)N)cc1)Oc1ccc(C(=N)N)cc1 [Analog P15B] |  | 0.187 | 132.5 µg/mL | 0.187 | 239 µg/mL | 
colistin [reference compound] |  |  | 7.81 µg/mL |  |  | 
C[C@@H](CCC[C@H](C)Oc1ccc(C(=N)N)cc1)Oc1ccc(C(=N)N)cc1 [Analog P15A] |  | 0.5 | 118.2 µg/mL | 0.25 | 106 µg/mL | 
N=C(N)c1ccc(OCCCCCOc2ccc(C(=N)N)cn2)nc1 [Analog P20] | 0.25 | 2 |  | 0.25 | > 320 µg/mL | 
N/C(=N\O)c1ccc(OCCCCCOc2ccc(/C(N)=N/O)nc2)cn1 [Analog P19] |  | 2 |  | 2 | 135 µg/mL | 
N=C(N)c1ccc(OCCC2(CCOc3ccc(C(=N)N)cc3)CCCCC2)cc1 [Analog P03] | 0.094 | 0.625 |  | 0.078 |  | 
